Source: patent US20050239656A1, “Pyridine compounds or salts thereof and herbicides containing the same” (priority 2002, published 2005)

Assays:
[1] = system: redroot pigweed; experiment: Test Example 2: soil surface treatment, upland pot test; format: in vivo, Amaranthus retroflexus L.; details: observed 20th to 28th day
Method in brief: (§1)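 Readout was visual percent growth control (0 matching untreated, 100 complete kill) at days 20–28. Compound, as emulsifiable concentrate or wettable powder at a preset active-ingredient rate in 1,500 L/ha water, was sprayed onto sown upland soil one day after sowing.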

[2] = system: japanese ribbon wapato; experiment: Test Example 3: paddy pot test, application under submerged conditions; format: in vivo, Sagittaria pygniaea; details: submerged application at primary leaf stage, visually observed 14 days after application, 0 = non-treated, 100 = complete kill
Method in brief: (§2)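 Seeds were sown in flooded paddy soil (0.5–1 cm water), wapato tubers were planted 1–2 days later, and water was then held at 3–4 cm. Diluted wettable powder or emulsifiable concentrate was pipetted into the water at the 0.5 leaf or primary leaf stage. Growth control was visually scored at 14 days (0–100%).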

[3] = system: soybean; experiment: Test Example 2: soil surface treatment, upland pot test; format: in vivo, Glycine max Merr.; details: observed 20th to 28th day
Method in brief: as §1

[4] = system: barnyardgrass; experiment: as above; format: in vivo, Echinochloa crus-galli L.; details: observed 20th to 28th day
Method in brief: as §1

[5] = system: velvetleaf; experiment: as above; format: in vivo, Abutilon theophrasti MEDIC.; details: observed 20th to 28th day
Method in brief: as §1

[6] = system: japanese bulrush; experiment: Test Example 3: paddy pot test, application under submerged conditions; format: in vivo, Scirpus juncoides; details: submerged application at 0.5 leaf stage, visually observed 14 days after application, 0 = non-treated, 100 = complete kill
Method in brief: as §2

[7] = system: barnyardgrass; experiment: as above; format: in vivo, Echinochloa crus-galli L.; details: submerged application at 0.5 leaf stage, visually observed 14 days after application, 0 = non-treated, 100 = complete kill
Method in brief: as §2

[8] = system: prickly sida; experiment: Test Example 2: soil surface treatment, upland pot test; format: in vivo, Sida spinosa L.; details: observed 20th to 28th day
Method in brief: as §1

[9] = system: wheat; experiment: as above; format: in vivo, Triticum spp.; details: observed 20th to 28th day
From the text: Upland field soil was put into a 1/170,000 ha pot, and seed of various plants (barnyardgrass, crabgrass, green foxtail, redroot pigweed, prickly sida, velvetleaf, rice, wheat, corn, soybean) were sown. On the 1st day after the sowing, a wettable powder or emulsifiable concentrate having the compound of the present invention formulated in accordance with a usual formulation method, was weighed so that the active ingredient would be a predetermined amount, and diluted with water in an amount of 1,500 L/ha. The herbicide thus adjusted was applied by a small size sprayer for soil surface treatment. On the 20th to 28th days after the application of the herbicide, the growth of the respective plants was visually observed, and the herbicidal effects were evaluated by the growth controlling degrees (%) ranging from 0 (equivalent to the non-treated plot) to 100 (complete kill), whereby the results shown in Table 4, were obtained.

[10] = system: green foxtail; experiment: as above; format: in vivo, Setaria viridis L.; details: observed 20th to 28th day
Method in brief: as §1

[11] = system: corn; experiment: as above; format: in vivo, Zea mays L.; details: observed 20th to 28th day
Method in brief: as §1

[12] = system: rice (var. Nihonbare); experiment: Test Example 3: paddy pot test, transplanted rice; format: in vivo, Oryza sativa L.; details: applied 4th day after transplantation, visually observed 21st day after application, 0 = non-treated, 100 = complete kill
Method in brief: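 Rice (2-leaf stage) was transplanted 3 cm deep into puddled, leveled paddy soil under 3–4 cm flooding. On day 4 after transplanting, diluted wettable powder or emulsifiable concentrate was pipetted onto the water at a predetermined active-ingredient dose. Growth control (0 = untreated, 100 = complete kill) was scored visually 21 days later.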

[13] = system: rice; experiment: Test Example 2: soil surface treatment, upland pot test; format: in vivo, Oryza sativa L.; details: observed 20th to 28th day
Method in brief: as §1

[14] = system: crabgrass; experiment: as above; format: in vivo, Digitaria sanguinalis L.; details: observed 20th to 28th day
Method in brief: as §1

[15] = active ingredient 1000 g/ha, 0 = non-treated, 100 = complete kill

| Compound | Growth controlling degree (%) Redroot pigweed ([1]; active ingredient 1000 g/ha) [%] | Growth controlling degree (%) Soyabean ([3]; active ingredient 1000 g/ha) [%] | Growth controlling degree (%) Barnyardgrass [4, 15] [%] | Growth controlling degree (%) Velvetleaf ([5]; active ingredient 1000 g/ha) [%] | Growth controlling degree (%) Prickly sida ([8]; active ingredient 1000 g/ha) [%] | Growth controlling degree (%) wheat ([9]; active ingredient 1000 g/ha) [%] | Growth controlling degree (%) Green foxtail ([10]; active ingredient 1000 g/ha) [%] | Growth controlling degree (%) Corn ([11]; active ingredient 1000 g/ha) [%] | Growth controlling degree (%) Rice ([13]; active ingredient 1000 g/ha) [%] | Growth controlling degree (%) Crabgrass ([14]; active ingredient 1000 g/ha) [%] | Growth controlling degree (%) Japanese ribbon wapato ([2]; active ingredient 500 g/ha) [%] | Growth controlling degree (%) Japanese bulrush ([6]; active ingredient 500 g/ha) [%] | Growth controlling degree (%) Rice ([12]; active ingredient 500 g/ha) [%] | Growth controlling degree (%) Redroot pigweed ([1]; active ingredient 250 g/ha) [%] | Growth controlling degree (%) Soyabean ([3]; active ingredient 250 g/ha) [%] | Growth controlling degree (%) Barnyardgrass ([4]; active ingredient 250 g/ha) [%] | Growth controlling degree (%) Velvetleaf ([5]; active ingredient 250 g/ha) [%] | Growth controlling degree (%) Japanese bulrush ([6]; active ingredient 250 g/ha) [%] | Growth controlling degree (%) Barnyardgrass ([7]; active ingredient 250 g/ha) [%] | Growth controlling degree (%) Prickly sida ([8]; active ingredient 250 g/ha) [%] | further results |
| --- | --- | --- | --- | --- | --- | --- | --- | --- | --- | --- | --- | --- | --- | --- | --- | --- | --- | --- | --- | --- | --- |
| CC(C)C(NC(=O)Cc1ccccc1)c1cnccc1C(F)(F)F (centres unmarked) [Compound I-3] | 20 | 0 | 0 | 0 | 10 | 0 | 90 | 0 | 10 | 90 | – | – | – | – | – | – | – | – | – | – | Growth controlling degree (%) Japanese ribbon wapato ([2]; active ingredient 1000 g/ha): 30%; Growth controlling degree (%) Japanese bulrush ([6]; active ingredient 1000 g/ha): 98%; Growth controlling degree (%) Barnyardgrass ([7]; active ingredient 1000 g/ha): 90%; Growth controlling degree (%) Rice ([12]; active ingredient 1000 g/ha): 20% |
| CC(C)C(NC(=O)Cc1c(F)cccc1F)c1cnccc1C(F)(F)F (centres unmarked) [Compound I-5] | 0 | 10 | 30 | 0 | 0 | 10 | 70 | 20 | 10 | 90 | 50 | 90 | 20 | – | – | – | – | – | – | – | Growth controlling degree (%) Barnyardgrass ([7]; active ingredient 500 g/ha): 60% |
| CC(C)C(NC(=O)Cc1ccc(Br)cc1)c1cnccc1C(F)(F)F (centres unmarked) [Compound I-8] | 80 | 30 | 50 | 0 | 50 | 30 | 50 | 10 | 10 | 50 | 10 | 90 | 0 | – | – | – | – | – | – | – | Growth controlling degree (%) Barnyardgrass ([7]; active ingredient 500 g/ha): 90% |
| CC(C)C(c1cnccc1C(F)(F)F)N(C)C(=O)Cc1cccc(F)c1 (centres unmarked) [Compound I-20] | – | – | – | – | – | – | – | – | – | – | 90 | 90 | 40 | – | – | – | – | – | – | – | Growth controlling degree (%) Redroot pigweed ([1]; active ingredient 500 g/ha): 95%; Growth controlling degree (%) Soyabean ([3]; active ingredient 500 g/ha): 30%; Growth controlling degree (%) Barnyardgrass ([4]; active ingredient 500 g/ha): 100%; Growth controlling degree (%) Velvetleaf ([5]; active ingredient 500 g/ha): 100%; Growth controlling degree (%) Prickly sida ([8]; active ingredient 500 g/ha): 100%; Growth controlling degree (%) wheat ([9]; active ingredient 500 g/ha): 40%; Growth controlling degree (%) Green foxtail ([10]; active ingredient 500 g/ha): 100%; Growth controlling degree (%) Corn ([11]; active ingredient 500 g/ha): 70%; Growth controlling degree (%) Rice ([13]; active ingredient 500 g/ha): 0%; Growth controlling degree (%) Crabgrass ([14]; active ingredient 500 g/ha): 100% |
| CC(C)C(c1cnccc1Cl)N(C)C(=O)Cc1ccccc1 (centres unmarked) [I-22] | – | – | – | – | – | – | – | – | – | – | 95 | 95 | 0 | – | – | – | – | – | – | – | Growth controlling degree (%) Redroot pigweed ([1]; active ingredient 500 g/ha): 90%; Growth controlling degree (%) Soyabean ([3]; active ingredient 500 g/ha): 10%; Growth controlling degree (%) Barnyardgrass ([4]; active ingredient 500 g/ha): 90%; Growth controlling degree (%) Velvetleaf ([5]; active ingredient 500 g/ha): 70%; Growth controlling degree (%) Prickly sida ([8]; active ingredient 500 g/ha): 70%; Growth controlling degree (%) wheat ([9]; active ingredient 500 g/ha): 30%; Growth controlling degree (%) Green foxtail ([10]; active ingredient 500 g/ha): 90%; Growth controlling degree (%) Corn ([11]; active ingredient 500 g/ha): 20%; Growth controlling degree (%) Rice ([13]; active ingredient 500 g/ha): 10%; Growth controlling degree (%) Crabgrass ([14]; active ingredient 500 g/ha): 95% |
| CCCOC(=O)N(C)C(c1cnccc1C(F)(F)F)C(C)C (centres unmarked) [I-203] | – | – | – | – | – | – | – | – | – | – | – | – | – | 80 | 30 | 100 | 30 | 95 | 100 | 60 | Growth controlling degree (%) wheat ([9]; active ingredient 250 g/ha): 30%; Growth controlling degree (%) Green foxtail ([10]; active ingredient 250 g/ha): 98%; Growth controlling degree (%) Corn ([11]; active ingredient 250 g/ha): 40%; Growth controlling degree (%) Rice ([12]; active ingredient 250 g/ha): 10%; Growth controlling degree (%) Rice ([13]; active ingredient 250 g/ha): 60%; Growth controlling degree (%) Crabgrass ([14]; active ingredient 250 g/ha): 100% |
| CC(=Cc1ccccc1)C(=O)N(C)C(c1cnccc1C(F)(F)F)C(C)C (centres unmarked) [I-206] | – | – | – | – | – | – | – | – | – | – | – | – | – | 70 | 20 | 100 | 40 | 98 | 100 | 50 | Growth controlling degree (%) wheat ([9]; active ingredient 250 g/ha): 30%; Growth controlling degree (%) Green foxtail ([10]; active ingredient 250 g/ha): 100%; Growth controlling degree (%) Corn ([11]; active ingredient 250 g/ha): 30%; Growth controlling degree (%) Rice ([12]; active ingredient 250 g/ha): 10%; Growth controlling degree (%) Rice ([13]; active ingredient 250 g/ha): 40%; Growth controlling degree (%) Crabgrass ([14]; active ingredient 250 g/ha): 100% |
| CC(=O)N(C)C(c1cnccc1C(F)(F)F)C(C)C (centres unmarked) [I-208] | – | – | – | – | – | – | – | – | – | – | – | – | – | 90 | 60 | 100 | 50 | 98 | 98 | 80 | Growth controlling degree (%) wheat ([9]; active ingredient 250 g/ha): 80%; Growth controlling degree (%) Green foxtail ([10]; active ingredient 250 g/ha): 100%; Growth controlling degree (%) Corn ([11]; active ingredient 250 g/ha): 70%; Growth controlling degree (%) Rice ([12]; active ingredient 250 g/ha): 70%; Growth controlling degree (%) Rice ([13]; active ingredient 250 g/ha): 100%; Growth controlling degree (%) Crabgrass ([14]; active ingredient 250 g/ha): 100% |
